Literature values as cited in patent publication US7857962B2, “Potentiometric electrode, gradient polymer, uses and method of preparation therefor” (Universiteit Antwerpen, priority 2004, dated 2010).

Details: basic drugs named for comparison
For Nc1c(Br)cc(Br)cc1CN[C@H]1CC[C@H](O)CC1 [ambroxol, reference compound], the “log P” value is listed as 3.24.
For CN(Cc1cc(Br)cc(Br)c1N)C1CCCCC1 [bromhexine, reference compound], the “log P” value is given as 4.03.
In the case of CC(C)(C)NCC(O)c1cc(Cl)c(N)c(Cl)c1 (centres unmarked) [clenbuterol, reference compound], the “log P” value is listed as 2.91.

Same assay, conditions: organic acid analytes; n-octanol/water
For O=C(O)/C=C/C(=O)O [Fumaric, fumaric acid], the “Log P” value is given as “+0.49”.
For CC(O)C(=O)O (centres unmarked) [Lactic, lactic acid], the “Log P” value is listed as −1.31.
For O=C(O)CC(O)C(=O)O (centres unmarked) [Malic, malic acid], the “Log P” value is listed as −1.22.
For O=C(O)CCC(=O)O [Succinic, succinic acid], the “Log P” value is listed as −1.11.
For O=C(O)C(O)C(O)C(=O)O (centres unmarked) [Tartaric, tartaric acid], the “Log P” value is listed as −1.39.
